Experimental data as given in patent US12564609B2, “Hematopoietic stem cell engraftment with a combination of agents” (The Board of Trustees of the Leland Stanford Junior …, priority 2020, dated 2026).

Legend:
[1] = tested on: hematopoietic stem and progenitor cells; assay: In vivo depletion of blood, spleen and bone marrow cells by AZA; design: species or system C57BL/6 mice; settings: AZA 5 mg/kg/d for 5 days
Protocol: A. Schematic of treatment protocol. C57BL/6 mice were injected with 5-Azacytidine (AZA) in dose 5 mg/kg/d for 5 consecutive days. Peripheral blood, bone marrow (BM) and spleen were analyzed on days 6, 10 and 15 and 20 after start AZA treatment. B. Peripheral blood cell counts in untreated mice as compared to AZA-treated mice at day 6, 10 and 20 following AZA treatment. Hemoglobin (Hb); white blood cells (WBC). C. Total live cells in bone marrow (BM) and spleen of untreated mice and AZA-treated mice at day 6, 10, 15 and 20 after start AZA treatment. D. Hematoxylin and eosin staining of bone marrow section from mouse femur at day 6 after treatment with AZA 5 mg/kg/d for 5 days as compared to untreated control. Magnification 100 μm. E. Representative flow cytometric analysis of the hematopoietic stem and progenitor cell (HSPC) compartment in the BM of untreated and AZA-treated mice at day 6, 10, 15 and 20. […] Lin^−Sca1^+ c-Kit^+ cells (LSK), multipotent progenitors (MPP), long-term hematopoietic stem cells (LT-HSC), short-term HSC (ST-HSC). F. Absolute number of the different HSPC compartments at day 6, 10, 15 and 20 after start of AZA treatment as compared to untreated control mice. Lin^−Sca1^+c-Kit^+ (LSK); LSKCD150^+CD48^− (LT-HSC), LSKCD150^−CD48^− (ST-HSC), LSKCD150^+CD48^+ (MPP2), LSKCD150^−CD48^+Flt3^− (MPP3), LSKCD150^−CD48^+Flt3^+ (MPP4). Data in (B), (C) and (F) represent mean±SD (n=4 per group per timepoint). Statistics were calculated with Mann-Whitney test (*P<0.05).
(§1) Mice. C57BL/6 (B6) mice (H-2^b, Thy1.1, CD45.1/CD45.2) were recipients and B6 mice (H-2^b, Thy1.1, CD45.1) were donors for the congenic transplant experiments. BALB.B (H-2^b, Thy1.2, CD45.2) mice were used as recipients and B6 mice (H-2^b, Thy1.1, CD45.1) as donors for […] (allogeneic) transplant experiments. Recipients were >8 weeks old and donors were 8-12 weeks old at timepoint of transplantation. B6 (H-2^b, Thy1.1, CD45.2) mice were used for in vivo depletion studies. Mice were bred and maintained under pathogen free conditions at the Stanford University Research Animal Facility. All experiments were performed under a protocol approved by the Stanford Administrative Panel on Laboratory Animal Care.
(§2) In vivo administration of therapeutic agents and cytokines. Anti-mouse CD117 mAbs, clone ACK2 (BioXcell) and 2B8 (BioXcell), were injected retroorbital as a single dose of 500 μg following intraperitoneal administration of Diphenhydramine (Benadryl). Anti CD4 (clone GK1.5, BioXcell) and anti-CD8 (clone YTS169.4, BioXcell) were administered intraperitoneally at a dose of 100 μg in 100 μl phosphate-buffered saline (PBS). […] Before each injection, AZA was thawed for 10-15 min at room temperature (RT), resuspended in PBS and administered intraperitoneally in 100 μl. Recombinant murine SCF (PeproTech), dissolved in deionized water to concentration of 10 μg/ml, was injected intraperitoneally at the amount of 1 μg/day.
Flow cytometry. Cells were stained for surface markers and incubated at RT in the dark for 20 min.
Bone marrow and spleen cell preparation for analysis. Mice were euthanized and bone marrow (hips, femurs, tibia, spine) and spleen were harvested. Bones were crushed in PBS+2% bovine calf serum (BCS) into single cell suspensions and filtered through 70-μm filter (Falcon). Spleens were mashed direct in 70-μm filter (Falcon). RBC lysis was performed with ACK lysis buffer for 10 min at RT. Cells were rinsed, filtered again and counted on a Countess automated cell counter (Invitrogen).
Complete blood cell count. 20 μl of whole blood was collected via the tail vein and complete blood counts (CBC) were conducted using Heska HemaTrue Veterinary Hematology Analyzer (Heska).

donor HSC engraftment = assay: Congenic hematopoietic cell transplantation, donor chimerism in peripheral blood; assay type: in vivo, B6 mice
Description: as §1
as §2, with “Recombinant murine SCF (PeproTech), dissolved in deionized water to concentration of 10 μg/ml, was injected intraperitoneally at the amount of 1 μg/day.” left out

[2] = AZA in mouse model of HCL with transplantation of donor hematopoietic cells; assay type: in vivo, mice; settings: AZA 5 mg/kg for 5 days followed by transplantation
Protocol: Wildtype and HCL mice were treated with AZA 5 mg/kg for 5 days following by transplantation of donor hematopoietic cells. % myeloid donor chimerism was assessed by flow cytometry at 4- and 16-weeks post transplantation.

[3] = patients, subcutaneous administration of 75 mg/m^2 AZA, plasma; cited from earlier work

Which results are given for `Nc1ncn([C@@H]2O[C@H](CO)[C@@H](O)[C@H]2O)c(=O)n1` [AZA, 5-Azacytidine]?
rebound of splenic myeloid cells to normal levels [1]: ≤ 10 days; recovery of BM B cells [1]: > 15 days; recovery of all blood subsets to normal range values [1]: ≤ 20 days; recovery of overall BM cellularity [1]: ≤ 10 days; recovery of the ST-HSC fraction in BM [1]: > 20 days; nadir of MPP4 and common lymphoid progenitors (CLP) ([1]; BM): 10 days; recovery of CMP and GMP ([1]; BM): > 15 days; recovery of MEP ([1]; BM): ≤ 10 days; recovery of MPP4 and CLP ([1]; BM): ≤ 20 days; myeloid-biased multipotent progenitors MPP2 and MPP3 after BM depletion of HSC ([1]; by day 6): rapid expansion; depletion of common myeloid progenitors (CMP) ([1]; by day 6, BM): > 25 fold; depletion of granulocyte-macrophage progenitors (GMP) ([1]; by day 6, BM): > 18 fold; depletion of megakaryocyte-erythrocyte progenitors (MEP) ([1]; by day 6, BM): > 11 fold; reduction of LT-HSC in BM at nadir ([1]; day 6): 15 fold; reduction of ST-HSC in BM at nadir ([1]; day 6): 24 fold; splenic myeloid cells ([1]; day 6): significantly reduced; overall BM cellularity decreased ([1]; day 6, p value=0.0286): 80 % from baseline; maximal B cell (CD19) depletion in BM ([1]; day 10): > 30 fold; B-cell development in the bone marrow (Hardy fractions) ([1]; days 6, 10, 15 and 20): maturation block at Fraction D and E; reduction of granulocytes in blood ([1]; peripheral blood): ~4 fold; day of lowest blood values (Hb, WBC, granulocytes, lymphocytes, monocytes) ([1]; days after initiation of AZA): 10 days; stable engraftment of donor WBM (donor HSC engraftment; AZA 2.5 mg/kg for 5 days, 20×10^6 congenic WBM cells): does not enable stable engraftment; myeloid donor chimerism (donor HSC engraftment; single agent AZA 5 mg/kg for 5 days, congenic WBM cells): 10-15%; therapeutic activity [2]: shows therapeutic activity; Cmax [3]: 750 ± 403.3 ng/mL
